Laboratory results as given in patent US11278555B2, “Combinational therapies for treatment of cancer comprising a bacteriochlorophyll derivative” (Yeda Research and Development Co. Ltd., priority 2016, dated 2022).

Columns and labels:
MB49 (bladder) tumors [1] = experiment: Systemic anti-tumor response in MB49 mice: second tumor (bilateral model) and tail vein re-challenge (Scheme 3); assay type: in vivo; conditions: for animals with growth of second tumor grafted at left hind leg 1 day post VTP (fraction): bilateral model, Gemzar 50 mg/kg
Description: • (i) Bacteriochlorophyll Derivatives—The Bchl derivatives and RGD-conjugates thereof were provided by Steba Biotech (Rehovot, Israel). […] Concentration was verified by spectrophotometric measurement. STL-7012 was provided as dipotassium salt. Working solution was prepared by dissolving STL-7012 K^+ salt in 5% mannitol solution (1 mg/ml). […] WST11 was supplied as a powder and kept in the dark at −20° C. Stock was prepared by dissolving WST11 in DDW containing 5% glucose and 0.67% mannitol, aliquoted and lyophilized. Working solution was reconstituted with DDW and the concentration of solution was confirmed spectrophotometrically. Alternatively, Clinical WST11 (batch: P00611, and 10-130611) was supplied as lyophilized formulation. Material was dissolved in 5% dextrose, aliquoted and stored at −20° C. At the day of treatment the aliquot was thawed, filtered and the concentration of solution was confirmed spectrophotometrically. • (ii) Chemotherapeutic drugs preparation and storage—Gemcitabine (GEM, Gemzar®, Lilly) was purchased from a local pharmacy as a powder, dissolved in saline to a concentration of 38 mg/ml, aliquoted and stored at −20° C. […] Cyclophosphamide (CTX, Endoxan®, Baxter Oncology Gmbh, Germany) was purchased from a local pharmacy. A stock solution of 20 mg/ml was prepared by dissolving in 0.9% NaCl, aliquoted and stored at −20° C. […] Whole body imaging of luciferase-transfected tumors and metastases were recorded five minutes following 75 mg Kg^−1 intraperitoneal (i.p.) injection of D-luciferin with respective filter sets. • (vi) PDT treatment protocol: 4T1-Luc cells were grafted in the mammary pad of Balb/c mice. […] Ablation of primary tumors was assessed every 7 days by imaging the tumor's luciferase-mediated bioluminescence signal, using IVIS. […]

MB49 (bladder) tumors [2] = experiment: WST11 VTP and Gemzar in mice grafted with MB49 tumors (Scheme 2); assay type: in vivo; conditions: for animals cured (fraction): WST11 9 mg/kg VTP day 15 post grafting, Gemzar 50 mg/kg, 12 treatments/90 days; for cure / tumor progression: single treatment modalities
Description: • (i) Bacteriochlorophyll Derivatives—The Bchl derivatives and RGD-conjugates thereof were provided by Steba Biotech (Rehovot, Israel). […] Concentration was verified by spectrophotometric measurement. STL-7012 was provided as dipotassium salt. Working solution was prepared by dissolving STL-7012 K^+ salt in 5% mannitol solution (1 mg/ml). […] WST11 was supplied as a powder and kept in the dark at −20° C. Stock was prepared by dissolving WST11 in DDW containing 5% glucose and 0.67% mannitol, aliquoted and lyophilized. Working solution was reconstituted with DDW and the concentration of solution was confirmed spectrophotometrically. Alternatively, Clinical WST11 (batch: P00611, and 10-130611) was supplied as lyophilized formulation. Material was dissolved in 5% dextrose, aliquoted and stored at −20° C. At the day of treatment the aliquot was thawed, filtered and the concentration of solution was confirmed spectrophotometrically. • (ii) Chemotherapeutic drugs preparation and storage—Gemcitabine (GEM, Gemzar®, Lilly) was purchased from a local pharmacy as a powder, dissolved in saline to a concentration of 38 mg/ml, aliquoted and stored at −20° C. […] Cyclophosphamide (CTX, Endoxan®, Baxter Oncology Gmbh, Germany) was purchased from a local pharmacy. A stock solution of 20 mg/ml was prepared by dissolving in 0.9% NaCl, aliquoted and stored at −20° C. Aliquots were thawed, diluted with saline if needed to a desired concentration and used on the same day prepared at indicated doses. • (iii) Murine cell lines—Mammary luciferase (luc)-labeled 4T1 cell line (4T1-Luc) was a kind gift from Dr. Zvi Granot (Faculty of Medicine, The Hebrew University of Jerusalem, Israel); melanoma B16-F10 cell line was obtained from the American Type Culture Collection (ATCC, Manassas, Va.); bladder MB49 cell line was a kind gift from James Allison (MSKCC, New York, USA), and luc-labeled MB49-cell line was established using the murine stem cell virus (MSCV)-puromycin-luc-GFP construct (kindly provided by Dr. Emily Cheng, Human Oncology and Pathogenesis Program, MSKCC). 4T1 and MB49 cells were maintained in DMEM medium and B16-F10 cells in RPMI medium supplemented with 1 mmol/L sodium pyruvate, 10% fetal calf serum (FCS), 250 μg/ml hygromycin, 0.06 mg/ml penicillin and 0.1 mg/ml streptomycin. The cells were grown as monolayer at 37° C. in a humidified atmosphere (5% CO2, 95% air). • (iv) Murine tumor models—Female, Balb/c mice (6-8 week old) were grafted either subcutaneously (s.c.) into the right hind leg or orthotopically with 1×10^6 4T1 cells suspended in 50 or 1000 PBS. For the rechallenge study, 2×10^5 4T1 cells were orthotopically grafted. For bladder cancer model, 5×10^4 of MB49 or MB49-luciferase cell line were s.c. injected into the right flank of C57B/6 male mice (7-8 weeks old, Taconic, Hudson, N.Y.) 15 days prior to VTP treatment. For the efficacy study of VTP in immune compromised mice, the same number of MB49 cells was injected in the flank of Rag^−/− on C57B/6 background or C57B/6 male mice (7-8 week old, Jackson Laboratory, Bar Harbor, Me.). For bilateral model of MB49 cells, animals received 5×10^4 MB49 cells in the right flank and 5×10^4 cells in the left flank on days −15 and +1, respectively. All experimental procedures were approved by the Institutional Animal Care and Use Committee at the Weizmann Institute of Science (Rehovot, Israel) and The Memorial Sloan Kettering Cancer Center (MSKCC, New York, USA). […] Whole body imaging of luciferase-transfected tumors and metastases were recorded five minutes following 75 mg Kg^−1 intraperitoneal (i.p.) injection of D-luciferin with respective filter sets. • (vi) PDT treatment protocol: 4T1-Luc cells were grafted in the mammary pad of Balb/c mice. […] During the first two post-treatment days, the mice received analgesia (2.5 mg/kg Flunexin, once daily). Ablation of primary tumors was assessed every 7 days by imaging the tumor's luciferase-mediated bioluminescence signal, using IVIS. […]

[3] = test system: CD11b+ cells, neutrophils/G-MDSC and monocytes/M-MDSC; experiment: Innate immune response (spleen CD11b+ IHC, FACS of MDSC) of mice bearing MB49 tumors; assay type: in vivo; conditions: for CD11b+ cells in the spleen (IHC): day 6 post VTP; for neutrophils/G-MDSC and monocytes/M-MDSC in splenocytic cells (FACS): day 9 post treatment, Gemzar 60 or 120 mg/kg
Description: • (i) Bacteriochlorophyll Derivatives—The Bchl derivatives and RGD-conjugates thereof were provided by Steba Biotech (Rehovot, Israel). […] Concentration was verified by spectrophotometric measurement. STL-7012 was provided as dipotassium salt. Working solution was prepared by dissolving STL-7012 K^+ salt in 5% mannitol solution (1 mg/ml). […] WST11 was supplied as a powder and kept in the dark at −20° C. Stock was prepared by dissolving WST11 in DDW containing 5% glucose and 0.67% mannitol, aliquoted and lyophilized. Working solution was reconstituted with DDW and the concentration of solution was confirmed spectrophotometrically. Alternatively, Clinical WST11 (batch: P00611, and 10-130611) was supplied as lyophilized formulation. Material was dissolved in 5% dextrose, aliquoted and stored at −20° C. At the day of treatment the aliquot was thawed, filtered and the concentration of solution was confirmed spectrophotometrically. • (ii) Chemotherapeutic drugs preparation and storage—Gemcitabine (GEM, Gemzar®, Lilly) was purchased from a local pharmacy as a powder, dissolved in saline to a concentration of 38 mg/ml, aliquoted and stored at −20° C. […] Cyclophosphamide (CTX, Endoxan®, Baxter Oncology Gmbh, Germany) was purchased from a local pharmacy. A stock solution of 20 mg/ml was prepared by dissolving in 0.9% NaCl, aliquoted and stored at −20° C. Aliquots were thawed, diluted with saline if needed to a desired concentration and used on the same day prepared at indicated doses. • (iii) Murine cell lines—Mammary luciferase (luc)-labeled 4T1 cell line (4T1-Luc) was a kind gift from Dr. Zvi Granot (Faculty of Medicine, The Hebrew University of Jerusalem, Israel); melanoma B16-F10 cell line was obtained from the American Type Culture Collection (ATCC, Manassas, Va.); bladder MB49 cell line was a kind gift from James Allison (MSKCC, New York, USA), and luc-labeled MB49-cell line was established using the murine stem cell virus (MSCV)-puromycin-luc-GFP construct (kindly provided by Dr. Emily Cheng, Human Oncology and Pathogenesis Program, MSKCC). 4T1 and MB49 cells were maintained in DMEM medium and B16-F10 cells in RPMI medium supplemented with 1 mmol/L sodium pyruvate, 10% fetal calf serum (FCS), 250 μg/ml hygromycin, 0.06 mg/ml penicillin and 0.1 mg/ml streptomycin. […] Whole body imaging of luciferase-transfected tumors and metastases were recorded five minutes following 75 mg Kg^−1 intraperitoneal (i.p.) injection of D-luciferin with respective filter sets. • (vi) PDT treatment protocol: 4T1-Luc cells were grafted in the mammary pad of Balb/c mice. […] Ablation of primary tumors was assessed every 7 days by imaging the tumor's luciferase-mediated bioluminescence signal, using IVIS. […]

[4] = Spleen weight of animals orthotopically grafted with 4T1 cancer cells; assay type: in vivo, mice; conditions: 1 and 3 weeks
Excerpt: FIG. 13 compares changes in the spleen weight of animals orthotopically grafted with 4T1 cancer cells and not treated (control) with tumor bearing animals that underwent Gemzar treatment, WST11 VTP treatment or their combination.

Row | Structure (SMILES) | animals with growth of second tumor grafted at left hind leg 1 day post VTP (fraction) (MB49 (bladder) tumors [1]) | surviving mice that rejected the tumor cells (MB49 (bladder) tumors [1]; re-challenge by tail vein injection of MB49 cells at day 125 post VTP) [%] | animals cured (fraction) (MB49 (bladder) tumors [2]) | cure (MB49 (bladder) tumors [2]) [%] | tumor progression (MB49 (bladder) tumors [2]) | CD11b+ cells in the spleen (IHC) [3] | neutrophils/G-MDSC and monocytes/M-MDSC in splenocytic cells (FACS) [3] | six fold increase in spleen weight found in non-treated animals [4]
1 | CCC1c2cc3[n-]c(c(CC(=O)OC)c4nc(cc5[n-]c(cc(n2)C1C)c(C(C)=O)c5C)C(C)C4CCC(=O)[O-])c(C(=O)NCCS(=O)(=O)[O-])c3C.[K+].[K+].[Pd+2] (stereo not drawn) [WST11, Palladium 3^1-oxo-15-methoxycarbonylmethyl-rhodobacteriochlorin 13^1-(2-sulfoethyl) amide dipotassium salt] | 12/19 | 70 | 3/19 | 16 | slightly delayed tumor progression | depletes CD11b+ cells | depleted systemically | completely prevented
2 | Nc1ccn([C@@H]2O[C@H](CO)[C@@H](O)C2(F)F)c(=O)n1 [Gemzar, Gemcitabine] | 15/20 | – | 0/19 | 0 | slightly delayed tumor progression | depletes CD11b+ cells | depleted systemically | almost completely avoided
